Experimental data from paper PMC5013292, “A Putative Bacterial ABC Transporter Circumvents the Essentiality of Signal Peptidase” (mBio, 2016).

Tests used:
[1] = system: S. aureus USA300 SpsB-low; assay: MIC, USA300 SpsB-low; assay type: cell-based; conditions: result in words
Experimental: (§1) MICs were determined according to the standard protocol from the Clinical and Laboratory Standards Institute ([23]). Briefly, S. aureus bacteria were harvested from regular MHA plates that had been cultured for ~20 h at 37°C. Serial dilutions of compound 103 were incubated with bacteria at approximately 10^6 CFU (CFU)/ml in MHB in round-bottom 96 well plates (Corning, Corning, NY) for 22 h at 37°C. MICs were determined by the lowest concentration of compound 103 showing absence of growth by visual inspection.
A strain of USA300 Δmcr overexpressing SpsB (USA300 SpsB-high; GNE0028) was engineered by cloning SpsB under the constitutive sarA promoter into vector pMK4, resulting in SpsB expression that was ~20-fold higher than the wild-type level as determined by Western blotting. A USA300 Δmcr strain that underexpresses SpsB (USA300 SpsB-low; […]) was generated by genomic incorporation of spsB under the isopropyl-β-D-thiogalactopyranoside (IPTG)-sensitive promoter spac; without IPTG, this strain expresses SpsB at ~5% of the wild-type level as determined by Western blotting.

[2] = system: 102 globally diverse clinical S. aureus isolates; assay: MIC, global panel of 102 clinical isolates; assay type: cell-based; conditions: among a panel of 102 clinical S. aureus isolates
Description: Wild-type clinical S. aureus strains were obtained from the Network on Antibiotic Resistance in Staphylococcus aureus (NARSA/BEI) program. MRSA strain USA300 refers throughout this paper to strain NRS384 from NARSA/BEI. A global panel of 102 clinical S. aureus isolates was selected from the collection of International Health Management Associates, Inc. (IHMA; Schaumburg, IL), based on diversity of geographic locations, antibiotic resistance profiles, and sites of infection. Bacteria were cultured on cation-adjusted Mueller-Hinton agar (MHA) plates or in cation-adjusted Mueller-Hinton broth (MHB). Bacterial strains used in this study are listed in Table S5 in the supplemental material.
as §1

S. aureus USA300 = assay: Frequency of spontaneous resistance, USA300; assay type: cell-based; conditions: agar with compound 103 at fourfold its MIC; 37°C, 2 days; output/input CFU
Experimental: (§2) To determine the frequency of spontaneous resistance, suspensions containing approximately 5 × 10^9 CFU of S. aureus were cultured on MHA plates containing compound 103 at fourfold the MIC; serial dilutions were cultured in parallel on regular MHA to determine the actual number of CFU (input). The frequency of spontaneous resistance was defined as the number of viable colonies able to grow in the presence of compound 103 after culture at 37°C for 2 days (output) divided by input.

[3] = system: USA300 SAUSA300_0352(K44A) (strain GNE0174); assay: Frequency of spontaneous resistance, GNE0174; assay type: cell-based, S. aureus; conditions: K44A in SAUSA300_0352 in WT USA300 background; fourfold MIC; 37°C, 2 days; approximately 2 orders of magnitude reduced
Experimental: as §2
(§3) To generate mutations in SAUSA300_0351, _0352, and _0353 genes by homologous recombination, we transformed USA300 Δmcr using targeting constructs created in the vector pIMAY ([24]). To generate mutations in SAUSA300_0351, _0352, and _0353 genes in a cro/cI mutant background, we selected colonies from USA300 Δmcr cultured on plates containing fourfold the MIC of compound 103. Sequencing of PCR products of the cro/cI gene from resistant colonies yielded a clone with a Q16stop codon mutation in cro/cI (strain GNE0173). We further mutated SAUSA300_0351, _0352, and _0353 in this USA300 Δmcr cro/cI (Q16stop) clone to study the contributions of these three genes to cro/cI-mediated resistance.

[4] = system: USA300 WT(pMK4) (GNE0163); assay: MIC fold increase, GNE0163; assay type: cell-based, S. aureus
Experimental: as §1

[5] = system: psarA-SAUSA300_0351_0352_0353 (GNE0162); assay: MIC fold increase, GNE0162; assay type: cell-based, S. aureus
Experimental: as §1, §3

[6] = system: cro/cI(M1V)(pMK4) (GNE0107); assay: MIC fold increase, GNE0107; assay type: cell-based, S. aureus
Experimental: as §1

[7] = system: cro/cI(−14G→T)(pcro/cI-cro/cI) (GNE0097); assay: MIC fold increase, GNE0097; assay type: cell-based, S. aureus
Experimental: as §1

[8] = system: cro/cI(−62G→A)(pMK4) (GNE0099); assay: MIC fold increase, GNE0099; assay type: cell-based, S. aureus
Experimental: as §1

[9] = system: Δmcr cro/cI(Q16stop) (GNE0173); assay: MIC fold increase, GNE0173; assay type: cell-based, S. aureus
Experimental: as §1, §3

[10] = system: Δmcr cro/cI(Q16stop) SAUSA300_0352(K44A) (GNE0175); assay: MIC fold increase, GNE0175; assay type: cell-based, S. aureus
Experimental: as §1, §3

[11] = system: Δmcr cro/cI(Q16stop) ΔSAUSA300_0353 (GNE0210); assay: MIC fold increase, GNE0210; assay type: cell-based, S. aureus
Experimental: as §1, §3

[12] = system: SpsB Y30N mutant of USA300 Δmcr cro/cI(Q16stop) SAUSA300_0352(K44A); assay: MIC fold increase, SpsB Y30N mutant; assay type: cell-based, S. aureus
Experimental: as §1

[13] = system: SpsB Y30S mutant of USA300 Δmcr cro/cI(Q16stop) SAUSA300_0352(K44A); assay: MIC fold increase, SpsB Y30S mutant; assay type: cell-based, S. aureus
Experimental: as §1

[14] = system: SpsB V49L mutant of USA300 Δmcr cro/cI(Q16stop) SAUSA300_0352(K44A); assay: MIC fold increase, SpsB V49L mutant; assay type: cell-based, S. aureus
Experimental: as §1

[15] = system: SpsB H68Y mutant of USA300 Δmcr cro/cI(Q16stop) SAUSA300_0352(K44A); assay: MIC fold increase, SpsB H68Y mutant; assay type: cell-based, S. aureus
Experimental: as §1

[16] = system: SpsB H69L mutant of USA300 Δmcr cro/cI(Q16stop) SAUSA300_0352(K44A); assay: MIC fold increase, SpsB H69L mutant; assay type: cell-based, S. aureus
Experimental: as §1

[17] = system: SpsB V167D mutant of USA300 Δmcr cro/cI(Q16stop) SAUSA300_0352(K44A); assay: MIC fold increase, SpsB V167D mutant; assay type: cell-based, S. aureus
Experimental: as §1

[18] = system: SpsB V167F mutant of USA300 Δmcr cro/cI(Q16stop) SAUSA300_0352(K44A); assay: MIC fold increase, SpsB V167F mutant; assay type: cell-based, S. aureus
Experimental: as §1

CCCCc1ccc(-c2ccc(C(=O)N[C@@H](CCCCN)C(=O)N(C)[C@@H]3C(=O)N[C@@H](C)C(=O)N[C@H](C(=O)NCC(C)C(=O)O)Cc4ccc(O)c(c4)-c4cc3ccc4O)cc2)cc1 (some centres unmarked) [Compound 103]
MIC for a strain that underexpresses SpsB [1]: reduced MIC
isolates resistant to compound 103 [2]: 7 isolates
frequency of spontaneous resistance (S. aureus USA300): 3 × 10^−7
frequency of spontaneous resistance [3]: 2 × 10^−9
MIC of compound 103 (fold increase versus MIC for USA300 WT) [4]: 1.0 fold
MIC of compound 103 (fold increase versus MIC for USA300 WT) ([5]; GNE0162): >32 fold
resistance phenotype ([5]; GNE0162, overexpression of 3 ABC transporter genes, result in words): induced resistance
MIC of compound 103 (fold increase versus MIC for USA300 WT) [6]: >32 fold
MIC of compound 103 (fold increase versus MIC for USA300 WT) ([7]; GNE0097): 3.0 fold
resistance phenotype ([7]; GNE0097, plasmid-encoded WT cro/cI, result in words): reversed the resistant phenotype
MIC of compound 103 (fold increase versus MIC for USA300 WT) [8]: >32 fold
MIC of compound 103 (fold increase versus MIC for USA300 WT) [9]: >32 fold
MIC of compound 103 (fold increase versus MIC for USA300 WT) ([10]; GNE0175): 1.0 fold
resistance phenotype ([10]; GNE0175, SAUSA300_0352(K44A), result in words): reversed the resistant phenotype
MIC of compound 103 (fold increase versus MIC for USA300 WT) ([11]; GNE0210): 1.0 fold
resistance phenotype ([11]; GNE0210, deletion of SAUSA300_0353, result in words): reversed the resistant phenotype
MIC of compound 103 (fold increase versus MIC for USA300 WT) [12]: 4 fold
MIC of compound 103 (fold increase versus MIC for USA300 WT) [13]: 4 fold
MIC of compound 103 (fold increase versus MIC for USA300 WT) [14]: 4 fold
MIC of compound 103 (fold increase versus MIC for USA300 WT) [15]: 8 fold
MIC of compound 103 (fold increase versus MIC for USA300 WT) [16]: 4 fold
MIC of compound 103 (fold increase versus MIC for USA300 WT) [17]: 8 fold
MIC of compound 103 (fold increase versus MIC for USA300 WT) [18]: 8 fold
